{"source": "ChEMBL document CHEMBL6134773", "about": "“Metal-free synthesis of N-fused quinazolino-quinazoline-diones as a MALAT1 RNA triple helix intercalator” (RSC Med Chem, 2025)", "key": {"DNA [1]": {"test_system": "DNA", "assay": "Binding affinity to dsDNA (unknown origin) assessed as DNA intercalation by measuring change in fluorescence intensity by fluorescence-based screening assay", "format": "nucleic-acid assay"}, "MCF7": {"test_system": "MCF7", "assay": "Cytotoxicity against human MCF7 cells assessed as cell viability incubated for 48 hrs", "format": "functional, cell-based", "settings": "MCF7, 48 h"}, "MALAT1 triple helix RNA [2]": {"biological_target": "MALAT1 triple helix RNA", "assay": "Binding affinity to MALAT1 triple helix RNA (unknown origin) by fluorescence-based screening assay", "format": "nucleic-acid assay"}, "SK-OV-3": {"test_system": "SK-OV-3", "assay": "Cytotoxicity against human SK-OV-3 cells", "format": "functional, cell-based"}, "L929": {"test_system": "L929", "assay": "Cytotoxicity against mouse L929 cells", "format": "toxicity, cell-based"}, "DNA [3]": {"biological_target": "DNA", "assay": "Binding affinity to dsDNA (unknown origin) by fluorescence-based screening assay", "format": "nucleic-acid assay"}, "MALAT1 triple helix RNA [4]": {"test_system": "MALAT1 triple helix RNA", "assay": "Binding affinity to MALAT1 triple helix RNA (unknown origin) assessed as RNA intercalation by measuring change in fluorescence intensity by fluorescence-based screening assay", "format": "nucleic-acid assay"}, "MALAT1 triple helix RNA [5]": {"test_system": "MALAT1 triple helix RNA", "assay": "Binding affinity to MALAT1 triple helix RNA (unknown origin) assessed as […] by measuring conformational change at 2.5 to 5.0 uM at 25 to 65 degreeC by temperature dependent CD analysis", "format": "nucleic-acid assay", "settings": "dose 2.5-5 µM"}, "HeLa": {"test_system": "HeLa", "assay": "Cytotoxicity against human HeLa cells", "format": "functional, cell-based"}}, "note": "pEC50, pIC50: −log10 of the molar value. The source made the active and inactive calls. The rule behind the calls is not given here.", "data": [{"smiles": "O=c1c2ccccc2n2c(=O)c3ccccc3nc2n1Cc1ccc(OC(F)(F)F)cc1", "values": [{"measurement": "deltaFI", "setting": "DNA [1]", "result": 0.29}]}, {"smiles": "N=C(N)c1ccc(-c2ccc(-c3ccc(C(=N)N)cc3)o2)cc1", "note": "[FURAMIDINE]", "values": [{"measurement": "pIC50", "setting": "MCF7", "result": 4.05}, {"measurement": "pEC50", "setting": "MALAT1 triple helix RNA [2]", "result": 6.22}]}, {"smiles": "COc1cccc2c1C(=O)c1c(O)c3c(c(O)c1C2=O)C[C@@](O)(C(=O)CO)C[C@@H]3O[C@H]1C[C@H](N)[C@H](O)[C@H](C)O1", "note": "[DOXORUBICIN]", "values": [{"measurement": "pIC50", "setting": "SK-OV-3", "result": 6.27}]}, {"smiles": "O=c1c2ccccc2n2c(=O)c3ccccc3nc2n1Cc1cccc2ccccc12", "values": [{"measurement": "deltaFI", "setting": "DNA [1]", "result": 0.014}]}, {"smiles": "O=c1c2ccccc2n2c(=O)c3ccccc3nc2n1-c1ccc(C(F)(F)F)cc1", "values": [{"measurement": "deltaFI", "setting": "DNA [1]", "result": 0.084}]}, {"smiles": "O=c1c2ccccc2n2c(=O)c3ccccc3nc2n1CCCn1c(=O)c2ccccc2n2c(=O)c3ccccc3nc12", "values": [{"measurement": "pIC50", "setting": "SK-OV-3", "result": 5.10}, {"measurement": "deltaFI", "setting": "DNA [1]", "result": 1}, {"measurement": "pEC50", "setting": "MALAT1 triple helix RNA [2]", "result": 5.96}, {"measurement": "Activity", "setting": "L929", "result": "Non-toxic"}, {"measurement": "pEC50", "setting": "DNA [3]", "result": 5.85}, {"measurement": "deltaFI", "setting": "MALAT1 triple helix RNA [4]", "result": 1}, {"measurement": "Activity", "setting": "MALAT1 triple helix RNA [5]", "result": "Active"}, {"measurement": "pIC50", "setting": "HeLa", "result": 4.20}]}, {"smiles": "COC(=O)c1ccc(Cn2c(=O)c3ccccc3n3c(=O)c4ccccc4nc23)cc1", "values": [{"measurement": "deltaFI", "setting": "DNA [1]", "result": 0.426}]}, {"smiles": "N#Cc1ccc(Cn2c(=O)c3ccccc3n3c(=O)c4ccccc4nc23)cc1", "values": [{"measurement": "deltaFI", "setting": "DNA [1]", "result": 0.172}]}, {"smiles": "O=c1c2ccccc2n2c(=O)c3ccccc3nc2n1Cc1cccc(C(F)(F)F)c1", "values": [{"measurement": "deltaFI", "setting": "DNA [1]", "result": 0.76}, {"measurement": "pEC50", "setting": "MALAT1 triple helix RNA [2]", "result": 6.10}, {"measurement": "pEC50", "setting": "DNA [3]", "result": 6.00}, {"measurement": "deltaFI", "setting": "MALAT1 triple helix RNA [4]", "result": 0.504}]}, {"smiles": "O=c1c2ccccc2n2c(=O)c3ccccc3nc2n1Cc1ccc([N+](=O)[O-])cc1", "values": [{"measurement": "deltaFI", "setting": "DNA [1]", "result": 0.079}]}]}
